This test relates to mixture of Pseudomonas aeruginosa, Klebsiella pneumoniae, Staphylococcus aureus, and Bacillus subtilis. In words: Growth inhibition assay (microtiter plate-based synergy assay). Conditions: active used alone; dilute mineral salts medium pH 7.5; 37° C., 24 hr; OD580.
Source text: Growth Inhibition Assay. […] Regardless of the mechanism of action, the impact of a biocide (or combination of biocides) can be measured over time on the basis of an increase in the size of the community.
The assay measures the efficacy of one or more biocides at preventing growth of a consortium of bacteria in a dilute mineral salts medium. The medium contains (in mg/l) the following components: FeCl3.6H2O (1); CaCl2.2H2O (10); MgSO4.7H2O (22.5); (NH4)2SO4 (40); KH2PO4 (10); K2HPO4 (25.5); Yeast Extract (10); and glucose (100). After all components are added to deionized water, the pH of the medium is adjusted to 7.5. Following filter sterilization, aliquots are dispensed in 100 μl quantities to sterile microtiter plate wells. Dilutions of 2,2-dibromomalonamide (“DBMAL”) and/or “Biocide B” are then added to the microtiter plate. After preparing the combinations of actives as illustrated below, each well is inoculated with 100 μl of a cell suspension containing ca. 1×10^6 cells per milliliter of a mixture of Pseudomonas aeruginosa, Klebsiella pneumoniae, Staphylococcus aureus, and Bacillus subtilis. The final total volume of medium in each well is 300 μl. Once prepared as described herein, the concentration of each active ranges from 25 ppm to 0.195 ppm as illustrated in Table 1. The resulting matrix allows testing of eight concentrations of each active and 64 combinations of actives in the ratios (of actives).
Immediately after the microtiter plates are prepared, the optical density (OD) readings for each well is measured at 580 nm and the plates are then incubated at 37° C. for 24 hr. After the incubation period, the plates are gently agitated before OD580 values are collected. The OD580 values at T0 are subtracted from T24 values to determine the total amount of growth (or lack thereof) that occurs. These values are used to calculate the percent inhibition of growth caused by the presence of each biocide and each of the 64 combinations. A 90% inhibition of growth is used as a threshold for calculating synergy index (SI) values with the following equation: Synergy Index=MDBMAL/CDBMAL+MB/CB
where • CDBMAL: Concentration of DBMAL required to inhibit ≧90% of bacterial growth when used alone • CB: Concentration of biocide (B) required to inhibit ≧90% of bacterial growth when used alone. • MDBMAL: Concentration of DBMAL required to inhibit ≧90% of bacterial growth when used in combination with biocide (B). • MB: Concentration of biocide (B) required to inhibit ≧90% of bacterial growth when used in combination with DBMAL The SI values are interpreted as follows: • SI<1: Synergistic combination • SI=1: Additive combination • SI>1: Antagonistic combination
In the Examples below, the amounts of biocides in the solution are measured in mg per liter of solution (mg/l). Since solution densities are approximately 1.00, the mg/l measurement corresponds to weight and can be expressed as parts per million (ppm). Both units may therefore be used interchangeably in the Examples.
With `CC1(C)C(=O)N(Br)C(=O)N1Br` [DBDMH, dibromodimethylhydantoin], the “I90 value (minimum concentration to result in at least 90% inhibition of growth)” value is 3.13 mg/L. `NC(=O)C(Br)(Br)C(N)=O` [DBMAL, 2,2-dibromomalonamide]: the “I90 value (minimum concentration to result in at least 90% inhibition of growth)” value turned out to be 6.25 mg/L.

As for `CC1(C)C(=O)N(Cl)C(=O)N1Cl` [DCDMH, dichlorodimethylhydantoin], the “I90 value (minimum concentration to result in at least 90% inhibition of growth)” value was determined as 0.78 mg/L. Next, `OBr` [HOBr, hypobromous acid]: 12.5 mg/L; `OCl` [HOCl, hypochlorous acid]: 0.78 mg/L; monochlorodimethylhydantoin [MCDMH]: 3.13 mg/L.

The record behind these values is patent US9241484B2, “Compositions of dibromomalonamide and their use as biocides” (Dow Global Technologies LLC, priority 2011, dated 2016).
